Laboratory results taken from US7598377B2, “Inhibition of phosphoinositide 3-kinase β” (AstraZeneca AB, priority 2002, dated 2009).
Like-named read-outs stand apart in the source and are kept apart here.

What was measured:
[1] = molecular target: Fyn (Homo sapiens, UniProt P06241); assay: Tyrosine kinase assay by MDS Pharma Services (Panlabs); format: biochemical
[2] = tested on: rat tail bleeding time; assay: Tail bleeding studies in rats; format: in vivo
Protocol: Rats were anaesthetised with halothane in room air supplemented with O2. Tail bleeding time was measured 15 min before drug administration (−15), and 5 and 30 min after administration. For experiments involving pretreatment with aspirin and clopidogrel, tail bleeding time was also measured before the first gavage dose at −25 h. Incisions 5 mm long and 1 mm deep were made in the tail at each time point and bleeding was monitored every 30 sec until it had ceased (=tail bleeding time).

[3] = molecular target: Casein Kinase 2 (Homo sapiens, UniProt P68400); assay: Ser/Thr kinase assay by MDS Pharma Services (Panlabs); format: biochemical
[4] = molecular target: p38α (Homo sapiens, UniProt Q16539); assay: as above; format: biochemical
Chain of p38α (Q16539 whole entry): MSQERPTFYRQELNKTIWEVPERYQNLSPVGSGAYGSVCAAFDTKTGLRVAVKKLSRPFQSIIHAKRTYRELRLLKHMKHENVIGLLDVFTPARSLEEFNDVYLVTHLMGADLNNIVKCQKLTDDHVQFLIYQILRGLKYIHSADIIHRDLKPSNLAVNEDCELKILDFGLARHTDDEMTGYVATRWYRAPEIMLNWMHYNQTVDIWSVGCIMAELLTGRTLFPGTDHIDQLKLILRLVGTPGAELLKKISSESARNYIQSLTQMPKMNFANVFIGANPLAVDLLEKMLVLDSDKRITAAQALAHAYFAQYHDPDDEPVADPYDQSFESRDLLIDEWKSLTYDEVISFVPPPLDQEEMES

[5] = molecular target: HER2 Receptor (Homo sapiens, UniProt P04626); assay: Tyrosine kinase assay by MDS Pharma Services (Panlabs); format: biochemical
[6] = molecular target: CaMK; assay: Ser/Thr kinase assay by MDS Pharma Services (Panlabs); format: biochemical
[7] = molecular target: Insulin Receptor (Homo sapiens, UniProt P06213); assay: Tyrosine kinase assay by MDS Pharma Services (Panlabs); format: biochemical
Chain of Insulin Receptor (P06213 28-1382, species assumed): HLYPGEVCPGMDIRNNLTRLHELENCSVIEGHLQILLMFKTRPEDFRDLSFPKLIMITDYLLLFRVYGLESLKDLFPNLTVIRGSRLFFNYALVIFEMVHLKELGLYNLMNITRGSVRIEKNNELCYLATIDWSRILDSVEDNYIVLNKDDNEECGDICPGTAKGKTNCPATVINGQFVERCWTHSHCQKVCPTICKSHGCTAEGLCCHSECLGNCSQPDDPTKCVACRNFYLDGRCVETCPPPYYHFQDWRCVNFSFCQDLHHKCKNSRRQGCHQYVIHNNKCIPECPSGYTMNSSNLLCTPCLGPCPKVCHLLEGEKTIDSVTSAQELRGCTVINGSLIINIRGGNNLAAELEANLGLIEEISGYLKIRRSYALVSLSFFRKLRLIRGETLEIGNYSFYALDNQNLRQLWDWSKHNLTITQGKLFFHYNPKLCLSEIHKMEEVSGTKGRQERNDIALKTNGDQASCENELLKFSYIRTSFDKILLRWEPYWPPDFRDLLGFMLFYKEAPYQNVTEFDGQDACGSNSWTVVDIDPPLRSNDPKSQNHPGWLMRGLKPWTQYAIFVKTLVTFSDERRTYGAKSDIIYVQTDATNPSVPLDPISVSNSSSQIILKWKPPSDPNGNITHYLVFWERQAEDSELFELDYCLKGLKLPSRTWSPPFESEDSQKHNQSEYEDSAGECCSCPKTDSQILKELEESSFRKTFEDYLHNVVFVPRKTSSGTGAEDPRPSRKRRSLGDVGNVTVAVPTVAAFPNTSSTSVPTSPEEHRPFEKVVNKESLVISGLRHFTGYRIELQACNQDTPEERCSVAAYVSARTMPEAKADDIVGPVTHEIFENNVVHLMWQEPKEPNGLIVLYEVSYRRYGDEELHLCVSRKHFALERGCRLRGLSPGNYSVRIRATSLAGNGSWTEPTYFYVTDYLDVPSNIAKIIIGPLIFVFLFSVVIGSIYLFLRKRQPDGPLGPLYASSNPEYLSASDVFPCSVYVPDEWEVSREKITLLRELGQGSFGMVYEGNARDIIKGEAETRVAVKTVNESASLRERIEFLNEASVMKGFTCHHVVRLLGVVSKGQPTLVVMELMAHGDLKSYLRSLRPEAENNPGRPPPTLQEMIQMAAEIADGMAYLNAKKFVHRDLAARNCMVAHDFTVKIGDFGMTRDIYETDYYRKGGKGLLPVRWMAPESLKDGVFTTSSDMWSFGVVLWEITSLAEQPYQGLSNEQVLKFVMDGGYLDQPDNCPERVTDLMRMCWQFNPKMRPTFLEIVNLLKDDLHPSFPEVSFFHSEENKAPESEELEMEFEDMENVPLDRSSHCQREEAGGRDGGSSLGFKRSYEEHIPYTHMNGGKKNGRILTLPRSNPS

[8] = molecular target: T1, p110α-PI3K (Homo sapiens, UniProt P42336); assay: In vitro enzyme assay, p110α immunoprecipitated from platelet lysate (Biological Example 1); format: biochemical
T1 construct: The α and β isoforms of the PI3K were immunoprecipitated from a platelet lysate; from tissue; host or cells: washed platelets (lysate, immunoprecipitated with anti-p110α antibody)
T1 sequence (P42336 whole entry, canonical isoform): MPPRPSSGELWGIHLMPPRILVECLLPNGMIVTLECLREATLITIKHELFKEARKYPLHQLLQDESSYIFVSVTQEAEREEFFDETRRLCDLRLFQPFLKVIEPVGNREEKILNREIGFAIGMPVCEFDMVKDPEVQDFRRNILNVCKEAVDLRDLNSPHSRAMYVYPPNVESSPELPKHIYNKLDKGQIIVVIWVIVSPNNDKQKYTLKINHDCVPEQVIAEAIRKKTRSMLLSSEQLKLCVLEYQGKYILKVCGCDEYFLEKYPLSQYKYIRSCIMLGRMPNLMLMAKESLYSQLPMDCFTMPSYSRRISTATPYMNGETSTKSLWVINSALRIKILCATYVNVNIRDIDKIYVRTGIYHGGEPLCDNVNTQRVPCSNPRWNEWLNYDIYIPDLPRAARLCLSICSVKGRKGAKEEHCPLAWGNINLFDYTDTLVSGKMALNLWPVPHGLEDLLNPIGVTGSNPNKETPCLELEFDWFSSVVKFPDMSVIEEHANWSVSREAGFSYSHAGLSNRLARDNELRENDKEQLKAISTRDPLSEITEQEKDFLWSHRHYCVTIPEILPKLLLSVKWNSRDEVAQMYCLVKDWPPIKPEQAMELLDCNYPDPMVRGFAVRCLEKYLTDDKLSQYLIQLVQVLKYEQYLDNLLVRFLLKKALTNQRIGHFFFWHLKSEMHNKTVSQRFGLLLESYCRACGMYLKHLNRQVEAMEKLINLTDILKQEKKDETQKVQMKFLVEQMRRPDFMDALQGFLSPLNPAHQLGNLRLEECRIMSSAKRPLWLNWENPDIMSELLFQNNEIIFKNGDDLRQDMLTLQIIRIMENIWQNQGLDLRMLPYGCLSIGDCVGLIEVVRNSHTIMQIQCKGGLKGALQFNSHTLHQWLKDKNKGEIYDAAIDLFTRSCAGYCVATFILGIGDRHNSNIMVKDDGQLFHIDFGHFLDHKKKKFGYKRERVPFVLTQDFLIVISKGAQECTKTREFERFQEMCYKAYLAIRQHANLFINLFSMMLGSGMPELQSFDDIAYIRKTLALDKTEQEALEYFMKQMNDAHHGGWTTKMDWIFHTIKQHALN
T1 sequence (P27986 whole entry partner, canonical isoform): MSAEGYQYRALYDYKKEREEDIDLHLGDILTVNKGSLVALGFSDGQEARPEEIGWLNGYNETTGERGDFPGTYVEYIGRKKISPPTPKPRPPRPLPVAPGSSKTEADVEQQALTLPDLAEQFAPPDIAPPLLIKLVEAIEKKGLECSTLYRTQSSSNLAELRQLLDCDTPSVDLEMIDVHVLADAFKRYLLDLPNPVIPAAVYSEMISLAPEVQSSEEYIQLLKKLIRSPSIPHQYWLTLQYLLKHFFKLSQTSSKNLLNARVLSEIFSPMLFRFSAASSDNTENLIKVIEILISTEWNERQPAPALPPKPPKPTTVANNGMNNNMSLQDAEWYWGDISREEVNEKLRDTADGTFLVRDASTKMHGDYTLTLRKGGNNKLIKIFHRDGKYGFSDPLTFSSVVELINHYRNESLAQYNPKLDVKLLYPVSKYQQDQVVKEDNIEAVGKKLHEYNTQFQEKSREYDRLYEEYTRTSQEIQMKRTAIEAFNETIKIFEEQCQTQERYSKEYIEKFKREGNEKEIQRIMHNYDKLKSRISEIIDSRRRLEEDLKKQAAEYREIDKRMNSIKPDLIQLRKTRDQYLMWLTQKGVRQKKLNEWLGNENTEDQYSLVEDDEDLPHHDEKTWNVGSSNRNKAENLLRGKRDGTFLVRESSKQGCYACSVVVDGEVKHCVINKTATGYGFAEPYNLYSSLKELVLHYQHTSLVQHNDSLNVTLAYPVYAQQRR
Protocol: For each immunoprecipitation, 1 mg of lysate was incubated with an anti-p110α (1 μg), anti-p110β (1 μg), anti-p110δ (1 μg) or anti-PI4 kinase antibody (2-5 μg) and 50 μl of a 50% slurry of protein A beads overnight at 4° C. […] For PI4 kinase assays, protein A beads-immune complexes were also washed twice with lysis buffer, prior to two washes with 1× PI4 kinase assay buffer (20 mM Hepes, pH 7.5, 10 mM MgCl2, 0.3% Triton X-100) and the addition of other assay constituents, as described above. All reactions were terminated by the addition of 100 μl 1 M HCl, 200 μl choloroform/methanol (1:1) and 500 μl 2 M KCl and lipids extracted by centrifugation at 15,000×g for 2 minutes. The production of PI3 or PI4 kinase lipid products, PtdIns(3)P and PtdIns(4)P, were confirmed through TLC analysis. The lipid spots were then removed from the TLC plate and the level of radioactivity quantified to accurately determine the level of PtdIns(3)P/PtdIns(4)P production.

[9] = molecular target: p110γ-PI3K (Homo sapiens, UniProt P48736); assay: In vitro enzyme assay, p110γ recombinant protein (Biological Example 1); format: biochemical
Chain of p110γ-PI3K (P48736 whole entry, canonical isoform): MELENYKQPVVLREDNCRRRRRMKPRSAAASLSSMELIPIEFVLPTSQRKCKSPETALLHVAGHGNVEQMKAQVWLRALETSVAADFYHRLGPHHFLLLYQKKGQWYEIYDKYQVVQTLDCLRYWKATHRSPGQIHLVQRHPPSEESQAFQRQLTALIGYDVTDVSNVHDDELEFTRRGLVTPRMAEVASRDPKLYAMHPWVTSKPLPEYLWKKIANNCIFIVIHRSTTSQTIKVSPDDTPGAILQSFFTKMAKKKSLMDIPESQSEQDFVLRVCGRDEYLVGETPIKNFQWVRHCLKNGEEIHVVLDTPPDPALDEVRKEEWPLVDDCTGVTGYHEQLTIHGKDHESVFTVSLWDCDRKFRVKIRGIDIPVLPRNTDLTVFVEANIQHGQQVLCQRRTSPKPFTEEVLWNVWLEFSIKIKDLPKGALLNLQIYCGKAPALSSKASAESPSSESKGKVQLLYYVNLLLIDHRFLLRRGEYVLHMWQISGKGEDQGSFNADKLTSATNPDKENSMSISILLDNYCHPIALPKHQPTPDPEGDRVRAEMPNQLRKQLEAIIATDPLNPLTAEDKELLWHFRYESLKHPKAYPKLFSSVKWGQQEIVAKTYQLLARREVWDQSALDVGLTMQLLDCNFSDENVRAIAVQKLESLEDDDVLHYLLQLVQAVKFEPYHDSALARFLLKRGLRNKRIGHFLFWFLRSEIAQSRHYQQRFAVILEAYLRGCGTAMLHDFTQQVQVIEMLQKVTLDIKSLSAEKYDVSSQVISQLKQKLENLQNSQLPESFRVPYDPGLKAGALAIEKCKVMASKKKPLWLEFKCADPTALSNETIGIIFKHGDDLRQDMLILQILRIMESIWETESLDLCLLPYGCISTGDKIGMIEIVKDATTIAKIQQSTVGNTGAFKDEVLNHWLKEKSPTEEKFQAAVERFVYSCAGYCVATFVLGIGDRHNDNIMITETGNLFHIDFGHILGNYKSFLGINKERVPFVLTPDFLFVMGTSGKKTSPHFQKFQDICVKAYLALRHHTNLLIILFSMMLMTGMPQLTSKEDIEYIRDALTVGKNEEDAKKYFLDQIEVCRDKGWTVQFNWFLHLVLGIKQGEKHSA
Excerpt: Reactions were terminated and lipid products analysed as described above for the other PI 3-kinase isoforms assays.

[10] = tested on: carotid artery occlusive thrombus formation in rats; assay: Modified Folts model in rats; format: in vivo, Sprague-Dawley rats
Protocol: (§1) Studies were approved by the University of Melbourne Animal Ethics Committee in accordance with the guidelines of the National Health & Medical Research Council of Australia. Anaesthesia was induced in Sprague-Dawley rats (260-400 g) with sodium pentobarbitone (Nembutal; 60 mg/kg i.p.; Merial Australia Pty. Ltd., Sydney, NSW, Australia), and in New Zealand White rabbits (2-3 kg) with pentobarbitone (15 mg/kg i.v.) and fentanyl (6 μg/kg i.v.; David Bull Laboratories, Mulgrave, VIC, Australia). Animals were mechanically ventilated (Ugo Basile ventilator, Comerio, VA, Italy) with room air supplemented with O2. Body temperature was maintained throughout the experiment. Arterial blood pressure was measured via a femoral artery catheter connected to a pressure transducer (Model 1050.1, AD Instruments, Sydney, NSW) and a blood flow probe (1 mm i.d. for rats & 2.5 mm i.d. for rabbits; flowmeter […], Transonic Systems Inc., Ithaca, N.Y., USA) was placed around each (control and test) carotid artery; all parameters were recorded on a PowerLab data acquisition system (8SP; AD Instruments). A silk suture was tied loosely around 1 artery, distal to the flow probe, for subsequent stenosis. […] Carotid blood flow was monitored until it reached 0 ml/min, indicating a clot had formed at the site of stenosis. […] Again, carotid blood flow was monitored until it reached 0 ml/min, and the time recorded. […]

[11] = tested on: carotid artery occlusive thrombus formation in rabbits; assay: Modified Folts model in rabbits; format: in vivo, New Zealand White rabbits
Protocol: as §1

[12] = molecular target: ERK1 (Homo sapiens, UniProt P27361); assay: Ser/Thr kinase assay by MDS Pharma Services (Panlabs); format: biochemical
Chain of ERK1 (P27361 whole entry, species assumed): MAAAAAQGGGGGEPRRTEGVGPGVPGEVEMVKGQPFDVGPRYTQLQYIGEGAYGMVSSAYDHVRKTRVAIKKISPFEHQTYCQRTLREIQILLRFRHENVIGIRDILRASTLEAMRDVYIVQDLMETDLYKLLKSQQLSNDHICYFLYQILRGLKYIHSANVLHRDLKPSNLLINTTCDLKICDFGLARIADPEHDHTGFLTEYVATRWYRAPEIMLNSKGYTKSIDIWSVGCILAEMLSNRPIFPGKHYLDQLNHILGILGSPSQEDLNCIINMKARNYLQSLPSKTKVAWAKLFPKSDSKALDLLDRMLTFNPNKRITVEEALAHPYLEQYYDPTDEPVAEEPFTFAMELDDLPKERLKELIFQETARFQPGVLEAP

IC50 [1]: > 10 µM
bleeding time ([2]; TGX-221 2 mg/kg i.v. in combination with either clopidogrel or aspirin): did not affect bleeding time
prolonged bleeding time caused by co-administered agents ([2]; TGX-221 2 mg/kg i.v. with aspirin 200 mg/kg p.o.+heparin 100 U/kg i.v.): did not exacerbate
prolonged bleeding time caused by co-administered agents ([2]; TGX-221 2 mg/kg i.v. with clopidogrel 10 mg/kg p.o.+heparin 100 U/kg i.v.): did not exacerbate
rat tail bleeding time ([2]; TGX-221 20 mg/kg i.v. alone): unaffected
rat tail bleeding time ([2]; TGX-221 20 mg/kg i.v. with heparin 100 U/kg i.v.): unaffected
bleeding time ([2]; administered at >20 fold the minimum therapeutic concentration): did not increase bleeding time
IC50 [3]: > 10 µM
IC50 [4]: > 10 µM
IC50 [5]: > 10 µM
IC50 [6]: > 10 µM
IC50 [7]: > 10 µM
IC50 ([8]; Table I, read-out: inhibitory concentration, alpha): > 5 µM
IC50 ([8]; read-out: IC50 (μM), p110α-PI3K): 5 µM
IC50 ([9]; Table I, read-out: inhibitory concentration, gamma): > 5 µM
IC50 ([9]; read-out: IC50 (μM), p110γ-PI3K): > 10 µM
IC50 [12]: > 10 µM
Compound: Cc1cc(C(C)Nc2ccccc2)c2nc(N3CCOCC3)cc(=O)n2c1 (racemic) [TGX-221, (±)-7-methyl-2-morpholin-4-yl-9-(1-phenylaminoethyl)-pyrido[1,2-a]pyrimidin-4-one]
normal haemostasis as assessed by tail or ear bleeding times ([2]; in words): did not adversely impact
animals in which occlusive thrombus formation was immediately abolished ([10]; 2 mg/kg i.v. bolus): 100%
occlusive thrombus formation ([10]; 2 mg/kg, in words): completely prevented
animals in which occlusive thrombus formation was immediately abolished ([11]; 2 mg/kg i.v. bolus): 100%
occlusive thrombus formation ([11]; 2 mg/kg, in words): completely prevented
